Test results published in patent US7256174B2, “Somatostatin and somatostatin agonists for treating insulin insensitivity and Syndrome X” (Societe de Conseils de Recherches et d'Applications …, priority 1997, dated 2007).
Bridge positions count the residues as written; N and C are the ends. Square brackets hold non-standard residues; d marks the D form. Peptide text beside a SMILES is read from it.

Experiments:
[1] = Lipidemia study, plasma glycerol and triglycerides; assay type: in vivo, Obese (fa/fa) Zucker rats
Procedure: Obese (fa/fa) Zucker rats were treated as in example 1 above. On the last day of treatment (day 6), food was removed at 5:00 p.m., and the rats were fasted overnight. At 9:00 a.m. the next day, the animals were subjected to a glucose challenge, given as 0.8 gram/kg of glucose orally. Periodic 400 μl of blood samples were taken from the tail vein (Peterson, R. G., ILAR News, 32:16-19 (1990)) 60 min. and 30 min. before and at 30, 60, 90, and 120 min. after the administration of the glucose challenge (0.8 gram/kg orally). Aprotinin (Traysylol, Bayer UK, Hayward's Health, W. Sussex, U.K.) and heparin (Sigma Chemical Co., Poole, Dorset, U.K.) were added to the blood samples to a final concentration of 400 KIU/ml and 100 units/ml, respectively. Plasma fractions were prepared from these samples by centrifugation at 4000×G in a microfuge, for the estimation of triglycerides and glycerol. Samples were then stored at −80° C. until assayed.
Plasma glycerol and triglycerides were determined using the Sigma Enzymatic (Tinder) calorimetric assay kit (Cat #337-B, Sigma Chemical Co., Poole, Dorset, U.K.) and measuring absorbance at 540 nm in a spectrophotometer.

[2] = Insulin sensitivity study, oral glucose challenge after chronic treatment; assay type: in vivo, fatty (fa/fa) Zucker rats; details: 3 mg/kg s.c. twice daily, 7 days
Procedure: Male fatty Zucker rats (Harlan-Olac, Bicester, Oxon, U.K.), which were 15-17 weeks old, were randomly divided into two groups. The animals were house in pairs in a normal 12 hour light:12 hour darkness cycle at 20±2° C. and fed a standard laboratory rat diet (Beekay rat and mouse diet, Bantin & Kingman, Hull, Humberside, U.K.) ad libitum. For the group assigned to receive drug treatment, the rats received BIM-23268C at 3 mg/kg, by subcutaneous injection, twice a day at 10:00 AM and 5:00 PM. The other group, the control group, was treated with a subcutaneous injection of 0.1 ml/100 g of saline twice a day at 10:00 AM and 5:00 PM. […] On the last day of treatment, at 5:00 PM food was removed, and the rats were fasted overnight.
A method for assessing insulin sensitivity is to administer an oral glucose challenge and monitoring the secretion of insulin and disposal of glucose from the blood stream over a 240 min period (Bergman, R. N., et al., Endocrine Review 6:45-86 (1985)). […] 20 μl blood samples were taken from tail vein (Abdel-Halim, S. M., et al., Diabetes 43:281-288 (1994)) at −60 min, −30 min, 0 min, 30 min, 60 min, 90 min, 120 min, and 240 min.
The 20 μl samples were taken into 380 μl of hemolysis reagents (Sigma, Poole, Dorset, UK) containing 50 mg/liter of digitonin (Cat# D-1407) and 100 mg/liter of Maleimide (M-3766). From this, 100 μl of the hemolysed blood sample was added to 0.9 ml of Tinder reagent (Sigma Enzymatic calorimetric assay for blood glucose, Cat# 315-100, Sigma Chemical Co. Ltd, Poole, Dorset, UK). Blood glucose was determined according to vendor's recommendation at 505 nm.
Insulin was measured by the conventional radioimmunoassay method as described (Dunmore, S., & Beloff-Chain, A., J Endocrinol. 92:15-21 (1982)). Samples were assayed in triplicates with a 1:30000 dilution of an insulin antiserum (from guinea pig)raised in the laboratory (Dunmore, S. J., et al., J. Endocrinol. 137:375-381 (1993), and using ^125I-labelled bovine insulin, iodinated by the chloramine T method (Sambrook, et al., Molecular Cloning—A Laboratory Manual, Ed. 2., Cold Spring Harbor Laboratory Press, 1989). Rat insulin (2000U/0.1 ml, Novo Nordisk Laboratories, Basingstoke, Hants, U.K.) was used as a standard in the assay. The standards and samples were diluted in assay buffer containing NaH2PO4 5.7 g/L, bovine serum albumin (Sigma A4378, Sigma Chemical Co. Ltd., Poole, Dorset, UK) 5.0 g/L, NaN3 1.0 g/L buffered to pH 7.4). Antibody-bound insulin was separated on from free insulin by the addition of a second antibody (donkey anti-guinea pig Ig) coated on cellulose, Sac-Cel (IDS, Boldon, Tyne & Wear, UK). The antibody-bound insulin precipitate was separated by centrifugation. Counts bound were measured on an LKB Rackgamma solid scintillation counter.

[3] = Weight loss study, chronic (6 day) treatment; details: 3 mg/kg s.c. twice a day
[4] = 3 mg/kg s.c. twice a day, six days, samples 30 and 60 minutes before oral glucose challenge
[5] = throughout the 2-hour test period after oral glucose challenge
[6] = 0.8 g/kg oral glucose challenge

Structure (SMILES): C[C@@H](O)[C@@H]1NC(=O)[C@H](CCCCN)NC(=O)[C@@H](Cc2c[nH]c3ccccc23)NC(=O)[C@H](Cc2ccccc2)NC(=O)[C@H](Cc2ccccc2)NC(=O)[C@@H](N)CSSC[C@@H](C(N)=O)NC(=O)[C@H](Cc2ccccc2)NC1=O [BIM-23268, H-Cys-Phe-Phe-D-Trp-Lys-Thr-Phe-Cys-NH2] (H-CFF[dW]KTFC-NH2; disulfide 1-8)
- plasma glycerol [1, 4]: significantly lowered
- plasma triglycerides [1, 4]: significantly lowered
- reducing hypertriglyceridemia ([1]; 6-day treatment at 3 mg/kg s.c. twice a day): effective
- plasma glycerol [1, 5]: significantly lower
- plasma triglycerides [1, 5]: significantly lower
- hyperinsulinemia [2]: suppressing
- insulin-sensitivity [2]: improvement
- glucose tolerance [2, 6]: did not show an impairment
- plasma glucose profile versus untreated group [2, 6]: not significantly different
- glucose stimulated insulin secretion to the glucose challenge ([2]; 0.8 g/kg oral glucose challenge, vs saline control): significant suppression
- body weight gain versus control ([3]; six days): lower
- toxic effect / appearance of treated group ([3]; six days): appeared healthy
- average food consumption ([3]; six days (control 26.0)): 25.9 g/rat/day
- difference in amount of food consumed over the entire treatment period ([3]; six days, vs control): no difference
- group mean weight after six days ([3]; after six days (control 414.09 to 418.89)): 413.6
- group mean weight at the start of the trial ([3]; start of trial): 413.6
